Entries after “also recorded” stand apart in the source; their conditions may differ. *1 amine or outer side, *2 acyl side, *3 side chain or, on linkers, in order; H or OH if unused. Where a SMILES comes first, the peptide text is derived from it. [ ]: non-standard residue; d: D form. Phe(4-Br) = N[C@@H](Cc1ccc(Br)cc1)C(=O)O; X1 = N=C(N)NCCCN(N[*:1])C(=O)[*:2]; αMeR = C[C@](N)(CCCNC(=N)N)C(=O)O; NMeL = CN[C@@H](CC(C)C)C(=O)O; pGlu = O=C1CC[C@@H](C(=O)O)N1; αMeL = CC(C)C[C@](C)(N)C(=O)O; Nle = CCCC[C@H](N)C(=O)O; Aib = CC(C)(N)C(=O)O

The test system of series [1] is anesthetized mice. In words: Blood pressure assay in anesthetized mice. Format: in vivo. Conditions: 1.4 μM/kg body weight injected; for blood pressure lowering (hypotensive) effect: SBP, DBP, MABP. How it is done:
Synthetic peptides 8-19 were tested for blood pressure lowering abilities in anesthetized mice. Apelin peptides were injected through […], monitoring blood pressure (BP) and heart rate (HR) over 60 minutes.
Mice were anaesthetized with 1.5% isoflurane/oxygen, and body temperature was monitored and maintained at 36° C. by a heating pad. The aorta was cannulated via the right carotid artery using a PV loop catheter (Model 1.2F from Scisense, Transonic) in order to continuously record arterial blood pressure and heart rate (LabScribe 2.0, Scisense). […] Results are reported as systolic blood pressure (SBP), diastolic blood pressure (DBP), mean arterial blood pressure (MABP) and heart rate (HR).
Apelin peptides 11, 56-59 as well as the KLKB1-cleavage fragments 54 and 55 were tested for blood pressure lowering abilities in anesthetized mice.
Mice were anesthetized with 1.5% isoflurane/oxygen, and body temperature was monitored and maintained at 36° C. by a heating pad. The aorta was cannulated via the right carotid artery using a PV loop catheter (model 1.2F from Scisense, Transonic) in order to continuously record arterial blood pressure and heart rate (LabScribe 2.0, Scisense). Compounds 11, and 54-59 or 55-59 (1.4 μM/kg body weight) or the same volume of saline was injected via the right jugular vein. Results are reported as systolic blood pressure (SBP), diastolic blood pressure (DBP), mean arterial blood pressure (MABP), and heart rate (HR) shown in FIGS. 15A-D.
Apelin peptides were delivered systemically via the right internal jugular vein while blood pressure (BP) and heart rate (HR) were continuously monitored in the aorta cannulated via the right carotid artery. All N-terminally extended apelin peptides, except 58, show pronounced and time-stable blood pressure lowering effects (FIGS. 15a-d). […] This correlates with the results obtained from the Ca^2+ mobilization assay.

Series [2] addresses T1, wild-type rat apelin receptor (Rattus norvegicus, UniProt Q9JHG3).
T1 construct: expressed in transfected cells
T1 sequence (Q9JHG3 1-377): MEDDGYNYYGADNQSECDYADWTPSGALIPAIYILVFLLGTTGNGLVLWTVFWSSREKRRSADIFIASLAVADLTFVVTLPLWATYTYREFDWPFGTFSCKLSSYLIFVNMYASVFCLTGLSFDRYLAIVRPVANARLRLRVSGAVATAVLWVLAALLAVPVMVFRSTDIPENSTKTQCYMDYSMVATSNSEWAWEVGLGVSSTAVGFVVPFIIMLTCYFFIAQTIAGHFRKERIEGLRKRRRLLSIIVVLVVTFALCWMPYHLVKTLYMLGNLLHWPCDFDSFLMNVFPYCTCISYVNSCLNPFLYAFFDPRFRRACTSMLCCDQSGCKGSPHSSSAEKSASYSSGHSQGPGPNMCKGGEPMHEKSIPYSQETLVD
In words: Radioligand binding, displacement of [125I]-pyr-1-apelin-13 on CHO cell membranes. Conditions: for weaker affinity compared to 1, by a factor: ratio of Ki to native 1; for Ki: displacement of [125I]-pyr-1-apelin-13 (0.2 nM), CHO membranes, rat apelin receptor-EGFP, means ± SE, read-out: Affinity Ki; for receptor binding affinity (in words): rat apelin receptor. How it is done:
This experiment evaluated the ability of peptides of the present embodiments to bind to the wild-type rat apelin receptor, in order to examine the impact of synthetic modification within the critical RPRL motif of the apelin peptides.
Membrane preparations from CHO cells stably expressing the wild-type rat apelin receptor-EGFP were prepared as previously described (Gerbier et al., New Structural Insights Into The Apelin Receptor: Identification Of Key Residues For Apelin binding; FASEB J. 2015, 29, 314-322; Iturrioz et. al., Development Of Original Metabolically-Stable Apelin-17 Peptides With Diuretic And Cardiovascular Effects; FASEB J. 2017, 31, 687-700.) Crude membrane preparations (1 μg total mass of membranes/assay) were incubated for 3 h at 20° C. with 0.2 nM [^125I]-pyr-1-apelin-13 (monoiodinated on Lys^8 with Bolton-Hunter reagent, Perkin Elmer, Wellesley, Mass., USA) in binding buffer (50 mM HEPES, 5 mM MgCl2 1149 pH 7.5, BSA 1%) alone or in presence of the different compounds at various concentrations. The reaction was stopped by adding 4 mL of cold binding buffer, filtered on Whatman GF/C filters and washed with 5 mL of cold binding buffer. Radioactivity was then counted using a Wizard 1470 Wallac gamma counter (Perkin Elmer, Turku, Finland). Binding experiment data were analyzed with Graph Pad Prism.
Background: In a radioligand displacement assay an active substance lowers the binding of a labelled ligand.

The nature of series [3]: in vitro. Particulars: human, plasma.

Take `CCCC[C@H](NC(=O)[C@@H]1CCCN1C(=O)CNC(=O)[C@H](CCCCN)NC(=O)[C@H](Cc1c[nH]cn1)NC(=O)[C@H](CO)NC(=O)[C@H](CC(C)C)NC(=O)[C@H](CCCNC(=N)N)NC(=O)[C@@H]1CCCN1C(=O)[C@H](CCCNC(=N)N)NC(=O)[C@@H]1CCC(=O)N1)C(=O)NC(C)(C)C(=O)N[C@@H](Cc1ccc(Br)cc1)C(=O)O` [Peptide 4] ([pGlu]RPRLSHKGP[Nle][Aib][Phe(4-Br)]-OH; C-terminus assumed): in series [1], the “blood pressure lowering (hypotensive) effect” value (“blood pressure lowering” below) is on record as “potent physiological effects”. In addition, the “weaker affinity compared to 1, by a factor” value in series [2] is 6. Also, in series [3], the share remaining at 0.5 h, 80 µM was 77 ± 19% and the share remaining at 1 h, 80 µM was found to be 65 ± 14%.

For `CCCC[C@H](NC(=O)[C@@H]1CCCN1C(=O)CNC(=O)[C@H](CCCCN)NC(=O)[C@H](Cc1c[nH]cn1)NC(=O)[C@H](CO)NC(=O)[C@@H](CC(C)C)NC(=O)[C@H](CCCNC(=N)N)NC(=O)[C@@H]1CCCN1C(=O)[C@H](CCCNC(=N)N)NC(=O)[C@@H]1CCC(=O)N1)C(=O)NC(C)(C)C(=O)N[C@@H](Cc1ccc(Br)cc1)C(=O)O` [Peptide 8, pGlu-Arg-Pro-Arg-D-Leu-Ser-His-Lys-Gly-Pro-Nle-Aib-paraBrPhe] ([pGlu]RPR[dL]SHKGP[Nle][Aib][Phe(4-Br)]-OH; C-terminus assumed), the “blood pressure lowering” value in series [1] is reported as “no ability to decrease blood pressure; also recorded: inactivity”. Also, in series [2], the Ki was 0.12 ± 0.035 nM and the “receptor binding affinity (in words)” value is listed as “modest improvement in receptor binding”. For the same molecule, in series [3], the share remaining at 0.5 h, 80 µM was found to be 32 ± 2% and the fraction remaining at 1 h, 80 µM came to 22 ± 1%.

For `CCCC[C@H](NC(=O)[C@@H]1CCCN1C(=O)CNC(=O)[C@H](CCCCN)NC(=O)[C@H](Cc1c[nH]cn1)NC(=O)[C@H](CO)NC(=O)[C@@H](CC(C)C)NC(=O)[C@H](CCCNC(=N)N)NC(=O)[C@@H]1CCCN1C(=O)[C@H](CCCNC(=N)N)NC(=O)[C@H](CCC(N)=O)NC(=O)[C@H](CCCNC(=N)N)NC(=O)[C@H](CCCNC(=N)N)NC(=O)[C@H](Cc1ccccc1)NC(=O)[C@@H](N)CCCCN)C(=O)NC(C)(C)C(=O)N[C@@H](Cc1ccc(Br)cc1)C(=O)O` [Peptide 9] (H-KFRRQRPR[dL]SHKGP[Nle][Aib][Phe(4-Br)]-OH; N-terminus and C-terminus assumed), in series [1], the “effect on heart rate (HR)” value is on record as “had an impact on the heart rate” and the “blood pressure lowering” value is given as “inactivity; also recorded: without inducing any vasoactive effects”. For the same molecule, the Ki in series [2] is 0.14 ± 0.056 nM. Moreover, in series [3], the amount remaining at 0.5 h, 80 µM was determined as 80 ± 3% and the share remaining at 1 h, 80 µM came to 80 ± 4%.

Turning to `CCCC[C@H](NC(=O)[C@@H]1CCCN1C(=O)CNC(=O)[C@H](CCCCN)NC(=O)[C@H](Cc1c[nH]cn1)NC(=O)[C@H](CO)NC(=O)[C@H](CC(C)C)N(C)C(=O)[C@H](CCCNC(=N)N)NC(=O)[C@@H]1CCCN1C(=O)[C@H](CCCNC(=N)N)NC(=O)[C@@H]1CCC(=O)N1)C(=O)NC(C)(C)C(=O)N[C@@H](Cc1ccc(Br)cc1)C(=O)O` [Peptide 10, pGlu-Arg-Pro-Arg-NMeLeu-Ser-His-Lys-Gly-Pro-Nle-Aib-paraBrPhe] ([pGlu]RPR[NMeL]SHKGP[Nle][Aib][Phe(4-Br)]-OH; C-terminus assumed), in series [1], the “effect on heart rate (HR)” value is “significant and pronounced effect of increasing the murine HR; also recorded: had an impact on the heart rate”; the “blood pressure lowering” value is reported as “no ability to decrease blood pressure; also recorded: without inducing any vasoactive effects”. Besides, in series [2], the Ki stood at 0.1 ± 0.048 nM and the “receptor binding affinity (in words)” value was “modest improvement in receptor binding”. Moreover, in series [3], the fraction remaining at 0.5 h, 80 µM amounted to 77 ± 3% and the amount remaining at 1 h, 80 µM came out at 59 ± 6%.

With `CCCC[C@H](NC(=O)[C@@H]1CCCN1C(=O)CNC(=O)[C@H](CCCCN)NC(=O)[C@H](Cc1c[nH]cn1)NC(=O)[C@H](CO)NC(=O)[C@H](CC(C)C)NC(=O)[C@](C)(CCCNC(=N)N)NC(=O)[C@@H]1CCCN1C(=O)[C@H](CCCNC(=N)N)NC(=O)[C@@H]1CCC(=O)N1)C(=O)NC(C)(C)C(=O)N[C@@H](Cc1ccc(Br)cc1)C(=O)O` [Peptide 12, pGlu-Arg-Pro-αMeArg-Leu-Ser-His-Lys-Gly-Pro-Nle-Aib-paraBrPhe] ([pGlu]RP[αMeR]LSHKGP[Nle][Aib][Phe(4-Br)]-OH; C-terminus assumed), in series [2], the inhibition constant (Ki) came to 0.56 ± 0.033 nM and the “weaker affinity compared to 1, by a factor” value is 2. In addition, in series [3], the fraction remaining at 1 h, 80 µM turned out to be 62 ± 6%.

As for `CCCC[C@H](NC(=O)[C@@H]1CCCN1C(=O)CNC(=O)[C@H](CCCCN)NC(=O)[C@H](Cc1c[nH]cn1)NC(=O)[C@H](CO)NC(=O)[C@H](CC(C)C)NC(=O)[C@](C)(CCCNC(=N)N)NC(=O)[C@@H]1CCCN1C(=O)[C@H](CCCNC(=N)N)NC(=O)[C@H](CCC(N)=O)NC(=O)[C@H](CCCNC(=N)N)NC(=O)[C@H](CCCNC(=N)N)NC(=O)[C@H](Cc1ccccc1)NC(=O)[C@@H](N)CCCCN)C(=O)NC(C)(C)C(=O)N[C@@H](Cc1ccc(Br)cc1)C(=O)O` [Peptide 13, Lys-Phe-Arg-Arg-Gln-Arg-Pro-αMeArg-Leu-Ser-His-Lys-Gly-Pro-Nle-Aib-paraBrPhe] (H-KFRRQRP[αMeR]LSHKGP[Nle][Aib][Phe(4-Br)]-OH; N-terminus and C-terminus assumed), in series [1], the “effect on heart rate (HR)” value is on record as “had an impact on the heart rate” and the “blood pressure lowering” value is on record as “without inducing any vasoactive effects”. Besides, in series [2], the Ki was found to be 0.13 ± 0.032 nM. Further, in series [3], the fraction remaining at 0.5 h, 80 µM was 61 ± 10% and the amount remaining at 1 h, 80 µM was 55 ± 4%.

Take `CCCC[C@H](NC(=O)[C@@H]1CCCN1C(=O)CNC(=O)[C@H](CCCCN)NC(=O)[C@H](Cc1c[nH]cn1)NC(=O)[C@H](CO)NC(=O)[C@](C)(CC(C)C)NC(=O)[C@H](CCCNC(=N)N)NC(=O)[C@@H]1CCCN1C(=O)[C@H](CCCNC(=N)N)NC(=O)[C@@H]1CCC(=O)N1)C(=O)NC(C)(C)C(=O)N[C@@H](Cc1ccc(Br)cc1)C(=O)O` [Peptide 14, pGlu-Arg-Pro-Arg-αMeLeu-Ser-His-Lys-Gly-Pro-Nle-Aib-paraBrPhe] ([pGlu]RPR[αMeL]SHKGP[Nle][Aib][Phe(4-Br)]-OH; C-terminus assumed): in series [1], the “effect on heart rate (HR)” value was “significant and pronounced effect of increasing the murine HR; also recorded: had an impact on the heart rate”; the “blood pressure lowering” value was “without inducing any vasoactive effects”. Besides, in series [2], the Ki amounted to 0.17 ± 0.05 nM and the “receptor binding affinity (in words)” value is listed as “modest improvement in receptor binding”. In series [3], this molecule returned a share remaining at 0.5 h, 80 µM of 45 ± 6% and a fraction remaining at 1 h, 80 µM of 38 ± 3%.

`CCCC[C@H](NC(=O)[C@@H]1CCCN1C(=O)CNC(=O)[C@H](CCCCN)NC(=O)[C@H](Cc1c[nH]cn1)NC(=O)[C@H](CO)NC(=O)[C@H](CC(C)C)NC(=O)N(CCCNC(=N)N)NC(=O)[C@@H]1CCCN1C(=O)[C@H](CCCNC(=N)N)NC(=O)[C@@H]1CCC(=O)N1)C(=O)NC(C)(C)C(=O)N[C@@H](Cc1ccc(Br)cc1)C(=O)O` [Peptide 16, pGlu-Arg-Pro-azaArg-Leu-Ser-His-Lys-Gly-Pro-Nle-Aib-paraBrPhe] ([pGlu]RP[X1]LSHKGP[Nle][Aib][Phe(4-Br)]-OH; C-terminus assumed): in series [1], the “effect on heart rate (HR)” value was “significant and pronounced effect of increasing the murine HR; also recorded: had an impact on the heart rate”; the “blood pressure lowering” value is “without inducing any vasoactive effects”. Besides, in series [2], the Ki was 1 ± 0.1 nM and the “weaker affinity compared to 1, by a factor” value is 3. In series [3], this molecule returned an amount remaining at 0.5 h, 80 µM of 83 ± 3% and a fraction remaining at 1 h, 80 µM of 57 ± 1%.

As a reminder, the amount remaining is the share of the starting amount still present when the sample was taken. A higher amount remaining goes with greater stability. What is called Ki is the equilibrium dissociation constant of an inhibitor or competing ligand from its target.
